Source: patent US10370425B2, “Peptide antagonists of the calcitonin CGRP family of peptide hormones and their use” (priority 2012, dated 2019)
Positions of bridges follow the written chain, without caps; N, C: chain ends. Residues, ends and D or L forms follow the SMILES beside them.

Target: T1, amylin receptor, AMY1, a CT (calcitonin) receptor/RAMP1 (receptor-activity modifying protein) complex (Homo sapiens, UniProt O60894+P30988)
T1 construct: host or cells: CHO-K1/AMY1/Gα15
Assay: Calcium flux assay (FLIPR Calcium 4) of inhibition of α-CGRP stimulation in CHO-K1/AMY1/Gα15 cells
Assay type: cell-based
Details: at maximal test concentration (series starts with 1 μM); CHO-K1/AMY1/Gα15 cells stimulated with 32 nM (EC80) α-CGRP; n = 2; read-out: % Inhibition @ Maximal concentration (Mean +/− SD, n = 2)
Description: Using a calcium flux assay, the dose-dependent inhibitory response of peptide antagonists of the present invention on an amylin receptor, AMY1, a CT (calcitonin) receptor/RAMP1 (receptor-activity modifying protein) complex was determined. The recombinant cell line CHO-K1/AMY1/Gα15 (GenScript, Piscataway, N.J., Catalog No. M00475) was employed in the assay. Peptide antagonist activities were tested, in duplicate, at five different concentrations, starting with 1 μM and serially diluted five-fold, in DMSO. AC187 (SEQ ID NO: 55), a known amylin receptor antagonist (available for example from Tocris Bioscience, Minneapolis, Minn., Catalog No. 3419) was used as a positive control in the assays, and human α-CGRP, a known amylin receptor agonist (SEQ ID NO:56) , (available for example from Tocris Bioscience, Minneapolis, Minn., Catalog No. 3012) was used as a positive control in the assays. The FLIPR® Calcium 4 Assay Kit (Molecular Devices, Sunnyvale, Calif.) was used.
Human α-CGRP having the amino acid sequence, NH2-[…]-NH2 (SEQ ID NO:56) and AC187 having the sequence […] (SEQ ID NO: 55) were employed as negative and positive controls, respectively. Stock solutions were further diluted in HBSS-HEPES buffer to make 5×final control solutions.
CHO-K1/AMY1/Gα15 cells were seeded in a 384-well black wall, clear bottom plate at a density of 20,000 cells/well in 20 μL of growth medium 20 hours prior to the day of the experiment and maintained at 37° C./5% CO2.
Per the assay kit protocol, dye-loading solution (at 2×final concentration) was added into the assay plate, 20 μL per well. Compound solution (at 5 ×final concentration) was added into the assay plate, 10 uL per well. The assay plate was placed into a 37° C. incubator for 1 hour, then left for 15 min at RT. The agonist plate (at 5×EC80 concentration) was placed in Source 2. The total reading time was 120 sec. The agonist was added after 20 seconds reading of the baseline and the fluorescence signal was captured for another 100 seconds (21 s to 120 s).
In screening, cells stimulated with assay buffer were chosen as the background; cells stimulated with agonist (at […] concentration) were chosen as the negative control.
Data were recorded by ScreenWorks (version 3.1) as FMD files and stored on the GenScript computer network for off-line analysis. Data acquisition and analyses was performed using ScreenWorks (version 3.1) program and exported to Excel. The average value of 20 (1 s to 20 s) seconds reading was calculated as the baseline reading and the relative fluorescent units (ΔRFU) intensity values were calculated with the maximal fluorescent units (21 s to 120 s) subtracting the average value of baseline reading.
The IC50 value of AC187 was 8 μM. The inhibitory activity of the tested peptide antagonists was normalized with the negative control (AC187) and reported as % Inhibition, calculated from the following equation: % Inhibition=(ΔRFUcompound−ΔRFUBackground)/(ΔRFUNegative control−ΔRFUBackground) * 100% Inhibition was then plotted along the Y-axis, with the test concentrations as indicated on the X-axis. The peptides were tested at indicated concentrations and stimulated with 32 nM (EC80) α-CGRP (Mean +/− SD, n=2).

T1 sequence (P30988 25-474): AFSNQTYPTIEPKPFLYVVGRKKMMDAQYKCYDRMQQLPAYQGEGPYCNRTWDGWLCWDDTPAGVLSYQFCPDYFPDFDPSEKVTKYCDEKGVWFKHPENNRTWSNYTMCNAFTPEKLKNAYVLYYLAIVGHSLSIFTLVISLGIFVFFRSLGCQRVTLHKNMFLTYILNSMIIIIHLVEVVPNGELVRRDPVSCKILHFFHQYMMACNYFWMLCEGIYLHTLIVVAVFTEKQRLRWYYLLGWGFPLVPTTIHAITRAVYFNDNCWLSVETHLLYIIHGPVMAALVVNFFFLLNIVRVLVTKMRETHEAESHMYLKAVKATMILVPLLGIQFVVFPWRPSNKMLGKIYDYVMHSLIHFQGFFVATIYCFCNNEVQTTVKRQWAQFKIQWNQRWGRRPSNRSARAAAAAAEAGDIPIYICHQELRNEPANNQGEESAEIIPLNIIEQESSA
T1 sequence (O60894 27-148): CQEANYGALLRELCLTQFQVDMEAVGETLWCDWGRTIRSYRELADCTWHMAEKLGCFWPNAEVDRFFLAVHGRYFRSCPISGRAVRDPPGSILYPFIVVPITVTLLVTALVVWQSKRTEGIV

SMILES | inhibition at 1 µM [%]
CC(C)C[C@H](NC(=O)[C@H](CCCNC(=N)N)NC(=O)CNC(=O)[C@H](CC(C)C)NC(=O)[C@@H](NC(=O)[C@@H]1CSSC[C@H](NC(=O)[C@H](C)N)C(=O)N[C@@H](CC(=O)O)C(=O)N[C@@H]([C@@H](C)O)C(=O)N[C@@H](C)C(=O)N[C@@H](CO)C(=O)N1)C(C)C)C(=O)N[C@@H](CO)C(=O)N[C@@H](CCC(N)=O)C(=O)N[C@@H](CCC(=O)O)C(=O)N[C@@H](CC(C)C)C(=O)N[C@@H](Cc1c[nH]cn1)C(=O)N[C@@H](CCCNC(=N)N)C(=O)N[C@@H](CC(C)C)C(=O)N[C@@H](CCC(N)=O)C(=O)N[C@H](C(=O)N[C@@H](Cc1ccc(O)cc1)C(=O)N1CCC[C@H]1C(=O)N[C@@H](CCCNC(=N)N)C(=O)N[C@H](C(=O)N[C@@H](CC(N)=O)C(=O)N[C@H](C(=O)NCC(=O)N[C@@H](CO)C(=O)N[C@@H](CCCCN)C(=O)N[C@@H](C)C(=O)N[C@@H](Cc1ccccc1)C(N)=O)C(C)C)[C@@H](C)O)[C@@H](C)O [compound 2] (H-ACDTASCVLGRLSQELHRLQTYPRTNVGSKAF-NH2; disulfide 2-7 (inferred)) | 96.5
CC(C)C[C@H](NC(=O)[C@H](CCCNC(=N)N)NC(=O)CNC(=O)[C@H](CC(C)C)NC(=O)[C@@H](NC(=O)[C@@H]1CSSC[C@H](NC(=O)[C@H](C)N)C(=O)N[C@@H](C(C)C)C(=O)N[C@@H](CC(C)C)C(=O)NCC(=O)N[C@@H](C)C(=O)N1)C(C)C)C(=O)N[C@@H](CO)C(=O)N[C@@H](CCC(N)=O)C(=O)N[C@@H](CCC(=O)O)C(=O)N[C@@H](CC(C)C)C(=O)N[C@@H](Cc1c[nH]cn1)C(=O)N[C@@H](CCCNC(=N)N)C(=O)N[C@@H](CC(C)C)C(=O)N[C@@H](CCC(N)=O)C(=O)N[C@H](C(=O)N[C@@H](Cc1ccc(O)cc1)C(=O)N1CCC[C@H]1C(=O)N[C@@H](CCCNC(=N)N)C(=O)N[C@H](C(=O)N[C@@H](CC(N)=O)C(=O)N[C@H](C(=O)NCC(=O)N[C@@H](CO)C(=O)N[C@@H](CCCCN)C(=O)N[C@@H](C)C(=O)N[C@@H](Cc1ccccc1)C(N)=O)C(C)C)[C@@H](C)O)[C@@H](C)O [compound 5] (H-ACVLGACVLGRLSQELHRLQTYPRTNVGSKAF-NH2; disulfide 2-7 (inferred)) | 88.5
CC(C)C[C@H](NC(=O)[C@H](CCCNC(=N)N)NC(=O)CNC(=O)[C@H](CC(C)C)NC(=O)[C@@H](NC(=O)[C@@H]1CSSC[C@H](NC(=O)[C@H](C)N)C(=O)N[C@@H](CC(N)=O)C(=O)N[C@@H](CC(C)C)C(=O)N[C@@H](CO)C(=O)N[C@@H](C(C)C)C(=O)N1)C(C)C)C(=O)N[C@@H](CO)C(=O)N[C@@H](CCC(N)=O)C(=O)N[C@@H](CCC(=O)O)C(=O)N[C@@H](CC(C)C)C(=O)N[C@@H](Cc1c[nH]cn1)C(=O)N[C@@H](CCCNC(=N)N)C(=O)N[C@@H](CC(C)C)C(=O)N[C@@H](CCC(N)=O)C(=O)N[C@H](C(=O)N[C@@H](Cc1ccc(O)cc1)C(=O)N1CCC[C@H]1C(=O)N[C@@H](CCCNC(=N)N)C(=O)N[C@H](C(=O)N[C@@H](CC(N)=O)C(=O)N[C@H](C(=O)NCC(=O)N[C@@H](CO)C(=O)N[C@@H](CCCCN)C(=O)N[C@@H](C)C(=O)N[C@@H](Cc1ccccc1)C(N)=O)C(C)C)[C@@H](C)O)[C@@H](C)O [compound 11] (H-ACNLSVCVLGRLSQELHRLQTYPRTNVGSKAF-NH2; disulfide 2-7 (inferred)) | 96.5
CC(C)C[C@H](NC(=O)[C@H](CCCNC(=N)N)NC(=O)CNC(=O)[C@H](CC(C)C)NC(=O)[C@@H](NC(=O)[C@@H]1CSSC[C@H](N)C(=O)N[C@@H](CO)C(=O)N[C@@H](CC(N)=O)C(=O)N[C@@H]([C@@H](C)O)C(=O)N[C@@H](C)C(=O)N[C@@H](C)C(=O)N1)C(C)C)C(=O)N[C@@H](CO)C(=O)N[C@@H](CCC(N)=O)C(=O)N[C@@H](CCC(=O)O)C(=O)N[C@@H](CC(C)C)C(=O)N[C@@H](Cc1c[nH]cn1)C(=O)N[C@@H](CCCNC(=N)N)C(=O)N[C@@H](CC(C)C)C(=O)N[C@@H](CCC(N)=O)C(=O)N[C@H](C(=O)N[C@@H](Cc1ccc(O)cc1)C(=O)N1CCC[C@H]1C(=O)N[C@@H](CCCNC(=N)N)C(=O)N[C@H](C(=O)N[C@@H](CC(N)=O)C(=O)N[C@H](C(=O)NCC(=O)N[C@@H](CO)C(=O)N[C@@H](CCCCN)C(=O)N[C@@H](C)C(=O)N[C@@H](Cc1ccccc1)C(N)=O)C(C)C)[C@@H](C)O)[C@@H](C)O [compound 8] (H-CSNTAACVLGRLSQELHRLQTYPRTNVGSKAF-NH2; disulfide 1-7 (inferred)) | 95.4
CC(C)C[C@H](NC(=O)[C@H](CCCNC(=N)N)NC(=O)CNC(=O)[C@H](CC(C)C)NC(=O)[C@@H](NC(=O)[C@@H]1CSSC[C@H](NC(=O)[C@H](C)N)C(=O)N[C@@H](CC(=O)O)C(=O)N[C@@H]([C@@H](C)O)C(=O)N[C@@H](C)C(=O)N[C@@H](C)C(=O)N1)C(C)C)C(=O)N[C@@H](CO)C(=O)N[C@@H](CCC(N)=O)C(=O)N[C@@H](CCC(=O)O)C(=O)N[C@@H](CC(C)C)C(=O)N[C@@H](Cc1c[nH]cn1)C(=O)N[C@@H](CCCNC(=N)N)C(=O)N[C@@H](CC(C)C)C(=O)N[C@@H](CCC(N)=O)C(=O)N[C@H](C(=O)N[C@@H](Cc1ccc(O)cc1)C(=O)N1CCC[C@H]1C(=O)N[C@@H](CCCNC(=N)N)C(=O)N[C@H](C(=O)N[C@@H](CC(N)=O)C(=O)N[C@H](C(=O)NCC(=O)N[C@@H](CO)C(=O)N[C@@H](CCCCN)C(=O)N[C@@H](C)C(=O)N[C@@H](Cc1ccccc1)C(N)=O)C(C)C)[C@@H](C)O)[C@@H](C)O [compound 1] (H-ACDTAACVLGRLSQELHRLQTYPRTNVGSKAF-NH2; disulfide 2-7 (inferred)) | 94.4
CC(C)C[C@H](NC(=O)[C@H](CCCNC(=N)N)NC(=O)CNC(=O)[C@H](CC(C)C)NC(=O)[C@@H](NC(=O)[C@@H]1CSSC[C@H](N)C(=O)N[C@@H](CO)C(=O)N[C@@H](CC(N)=O)C(=O)N[C@@H]([C@@H](C)O)C(=O)N[C@@H](C)C(=O)N[C@@H](C(C)C)C(=O)N1)C(C)C)C(=O)N[C@@H](CO)C(=O)N[C@@H](CCC(N)=O)C(=O)N[C@@H](CCC(=O)O)C(=O)N[C@@H](CC(C)C)C(=O)N[C@@H](Cc1c[nH]cn1)C(=O)N[C@@H](CCCNC(=N)N)C(=O)N[C@@H](CC(C)C)C(=O)N[C@@H](CCC(N)=O)C(=O)N[C@H](C(=O)N[C@@H](Cc1ccc(O)cc1)C(=O)N1CCC[C@H]1C(=O)N[C@@H](CCCNC(=N)N)C(=O)N[C@H](C(=O)N[C@@H](CC(N)=O)C(=O)N[C@H](C(=O)NCC(=O)N[C@@H](CO)C(=O)N[C@@H](CCCCN)C(=O)N[C@@H](C)C(=O)N[C@@H](Cc1ccccc1)C(N)=O)C(C)C)[C@@H](C)O)[C@@H](C)O [compound 12] (H-CSNTAVCVLGRLSQELHRLQTYPRTNVGSKAF-NH2; disulfide 1-7 (inferred)) | 96.1
CC(C)C[C@H](NC(=O)[C@H](CCCNC(=N)N)NC(=O)CNC(=O)[C@H](CC(C)C)NC(=O)[C@@H](NC(=O)[C@@H]1CSSC[C@H](NC(=O)[C@H](C)N)C(=O)N[C@@H](CC(N)=O)C(=O)N[C@@H](CC(C)C)C(=O)N[C@@H](CO)C(=O)N[C@@H](C)C(=O)N1)C(C)C)C(=O)N[C@@H](CO)C(=O)N[C@@H](CCC(N)=O)C(=O)N[C@@H](CCC(=O)O)C(=O)N[C@@H](CC(C)C)C(=O)N[C@@H](Cc1c[nH]cn1)C(=O)N[C@@H](CCCNC(=N)N)C(=O)N[C@@H](CC(C)C)C(=O)N[C@@H](CCC(N)=O)C(=O)N[C@H](C(=O)N[C@@H](Cc1ccc(O)cc1)C(=O)N1CCC[C@H]1C(=O)N[C@@H](CCCNC(=N)N)C(=O)N[C@H](C(=O)N[C@@H](CC(N)=O)C(=O)N[C@H](C(=O)NCC(=O)N[C@@H](CO)C(=O)N[C@@H](CCCCN)C(=O)N[C@@H](C)C(=O)N[C@@H](Cc1ccccc1)C(N)=O)C(C)C)[C@@H](C)O)[C@@H](C)O [compound 7] (H-ACNLSACVLGRLSQELHRLQTYPRTNVGSKAF-NH2; disulfide 2-7 (inferred)) | 96
